Test results: the supplement of paper PMC11208160

Assay: recombinant barcode read abundance after kanamycin selection (control-corrected) (log10(CPM+1)); higher = more efficient recombination; sequences stand for … in AGTGCAGAGAAAATCGGCCAGTTTTCTCTGCCTGCAGTCCGCATGCCGT…AGATTTATGCAGCGGACTGCCTTTCTCCCAAAGTGATAAACCGGACAGTATCATGGACCGGTTTTCCCGGTAATCCGTATTTGCAAGGTTGGTTTCACT; site = the 11-nt target
Protocol: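 Pooled E. coli target-specificity screen for the IS621 bridge recombinase. Each library plasmid pairs an 11-nt target (CT core) with a bridge RNA whose target-binding loop (9-nt LTG + 4-nt RTG) is reprogrammed; the rest of the 177-nt WT IS621 bridge RNA scaffold is fixed. The plasmid is co-electroporated with a WT donor plasmid; recombinase is induced with 0.1 mM IPTG and recombinants are selected on kanamycin. Recombinant barcodes are sequenced, converted to CPM, averaged over two biological replicates and corrected by the unselected control CPM. Molecule = full bridge RNA written as DNA: LTG = specificity nt 1-9, RTG = reverse complement of specificity nt 8-11, in the WT scaffold.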
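Note: IS621 recombinase and bridge RNA in Escherichia coli cells.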

| Sequence | recombinant barcode read abundance (log10) |
| --- | --- |
| ACTACTACTTGGGTTCTAACCTGTTGCCT (site AGTACTACTAG) | 0.492 |
| ACTACTACTTGGGTTCTAACCTGTTGCCT (site ATTACTACTAG) | 0.111 |
| ACTAGACCTTGGGTTCTAACCTGTTGCCT (site ACTAGACCTAG) | 0.5 |
| ACTAGACCTTGGGTTCTAACCTGTTGCCT (site ACTCGACCTAG) | 0.134 |
| ACTAGGACTTGGGTTCTAACCTGTTGCGT (site ACTAGGACTAC) | 2.91 |
| ACTAGGACTTGGGTTCTAACCTGTTGCGT (site ACTAGGACTCC) | 1.22 |
| ACTAGGACTTGGGTTCTAACCTGTTGCGT (site ACTAGGACTGC) | 0.248 |
| ACTAGGACTTGGGTTCTAACCTGTTGCGT (site ACTAGGACTTC) | 0.26 |
| ACTAGGCCTTGGGTTCTAACCTGTTGCGG (site ACTAGGCCTCC) | 2.2 |
| ACTAGGCCTTGGGTTCTAACCTGTTGCGG (site ACTATCCCTCC) | 0.0234 |
| ACTAGGGCTTGGGTTCTAACCTGTTGCGG (site AATAGGGCTCC) | 0.729 |
| ACTAGGGCTTGGGTTCTAACCTGTTGCGG (site ACTAGGGCTCC) | 3.25 |
| ACTAGTCCTTGGGTTCTAACCTGTTGCCA (site ACTACTCCTTC) | 0.0602 |
| ACTAGTCCTTGGGTTCTAACCTGTTGCCA (site ACTAGTCCTTG) | 0.326 |
| ACTAGTCCTTGGGTTCTAACCTGTTGCTT (site ACTAGTCCTAA) | 0.294 |
| ACTAGTCCTTGGGTTCTAACCTGTTGCTT (site ACTAGTCCTAC) | 0.143 |
| ACTAGTCCTTGGGTTCTAACCTGTTGCTT (site ACTAGTCCTAG) | 0.189 |
| ACTAGTCCTTGGGTTCTAACCTGTTGCTT (site ACTAGTCCTAT) | 0.316 |
| ACTATCCCTTGGGTTCTAACCTGTTGCGG (site ACTAGGCCTCC) | 0.283 |
| ACTATCCCTTGGGTTCTAACCTGTTGCGG (site ACTATCCCTCC) | 1.16 |
| ACTCGCTCTTGGGTTCTAACCTGTTGCAC (site ACTCGCTCTGT) | 1.5 |
| ACTCGCTCTTGGGTTCTAACCTGTTGCAC (site GGGACTACTCG) | 0.0345 |

| Sequence | recombinant barcode read abundance (log10) |
| --- | --- |
| ACTCTGGCTTGGGTTCTAACCTGTTGCCT (site ACACTGGCTAG) | 0.0916 |
| ACTCTGGCTTGGGTTCTAACCTGTTGCCT (site ACCCTGGCTAG) | 0.256 |
| ACTCTGGCTTGGGTTCTAACCTGTTGCCT (site ACGCTGGCTAG) | 0.254 |
| ACTCTGGCTTGGGTTCTAACCTGTTGCCT (site ACTCTGGCTAG) | 0.372 |
| ACTGAGTCTTGGGTTCTAACCTGTTGCAA (site ACTGAGTCTAT) | 0.0772 |
| ACTGAGTCTTGGGTTCTAACCTGTTGCAA (site ACTGAGTCTTT) | 1.87 |
| ACTGATTCTTGGGTTCTAACCTGTTGCCT (site ACTGATACTAG) | 0.214 |
| ACTGATTCTTGGGTTCTAACCTGTTGCCT (site ACTGATCCTAG) | 0.0546 |
| ACTGATTCTTGGGTTCTAACCTGTTGCCT (site ACTGATGCTAG) | 0.0541 |
| ACTGATTCTTGGGTTCTAACCTGTTGCCT (site ACTGATTCTAG) | 1.34 |
| ACTGCGGCTTGGGTTCTAACCTGTTGCCT (site AATTCGGCTAG) | 0.136 |
| ACTGCGGCTTGGGTTCTAACCTGTTGCCT (site ACTGCGGCTAG) | 0.617 |
| ACTGCGTCTTGGGTTCTAACCTGTTGCCT (site ACTCCGTCTAG) | 0.119 |
| ACTGCGTCTTGGGTTCTAACCTGTTGCCT (site ACTGCGTCTAG) | 1.6 |
| ACTGCTCCTTGGGTTCTAACCTGTTGCCT (site ACTGCTCCTAG) | 0.881 |
| ACTGCTCCTTGGGTTCTAACCTGTTGCCT (site CTCTGAGCTCT) | 0.0903 |
| ACTGGGCCTTGGGTTCTAACCTGTTGCGA (site ACTCGGCCTTC) | 0.191 |
| ACTGGGCCTTGGGTTCTAACCTGTTGCGA (site ACTGGGCCTTC) | 2.67 |
| ACTGTAACTTGGGTTCTAACCTGTTGCTT (site ACTATAACTAA) | 0.102 |
| ACTGTAACTTGGGTTCTAACCTGTTGCTT (site ACTCTAACTAA) | 0.0186 |
| ACTGTAACTTGGGTTCTAACCTGTTGCTT (site ACTGTAACTAA) | 1.06 |
| ACTGTAACTTGGGTTCTAACCTGTTGCTT (site ACTTTAACTAA) | 0.0634 |

| Sequence | recombinant barcode read abundance (log10) |
| --- | --- |
| ACTTCTGCTTGGGTTCTAACCTGTTGCCT (site ACTTCACCTAG) | 0.0609 |
| ACTTCTGCTTGGGTTCTAACCTGTTGCCT (site ACTTCTGCTAG) | 0.528 |
| ACTTGACCTTGGGTTCTAACCTGTTGCAG (site ACTTGACCTCT) | 1.83 |
| ACTTGACCTTGGGTTCTAACCTGTTGCAG (site ATTTGACCTCG) | 0.0223 |
| ACTTGTTCTTGGGTTCTAACCTGTTGCCT (site ACTTGTTCTAG) | 0.567 |
| ACTTGTTCTTGGGTTCTAACCTGTTGCCT (site CCTTGTTCTAG) | 0.202 |
| ACTTGTTCTTGGGTTCTAACCTGTTGCCT (site GCTTGTTCTAG) | 0.157 |
| ACTTGTTCTTGGGTTCTAACCTGTTGCCT (site TCTTGTTCTAG) | 0.0997 |
| ACTTTAGCTTGGGTTCTAACCTGTTGCTT (site ACTTGAACTAA) | 0.438 |
| ACTTTAGCTTGGGTTCTAACCTGTTGCTT (site ACTTTAGCTAA) | 0.399 |
| AGAAAAGCTTGGGTTCTAACCTGTTGCAA (site AGAAAAGCTTT) | 1.06 |
| AGAAAAGCTTGGGTTCTAACCTGTTGCAA (site CATGCTTCTAG) | 0.295 |
| AGAAAGGCTTGGGTTCTAACCTGTTGCGC (site AGAAAGGCTGC) | 2.32 |
| AGAAAGGCTTGGGTTCTAACCTGTTGCGC (site GTGGGCACTAG) | 0.0408 |
| AGAACGTCTTGGGTTCTAACCTGTTGCCT (site AGAACGTCTAG) | 1.09 |
| AGAACGTCTTGGGTTCTAACCTGTTGCCT (site AGAATGTCTAG) | 0.0292 |
| AGAACTCCTTGGGTTCTAACCTGTTGCTG (site AGAACTCCTCA) | 0.323 |
| AGAACTCCTTGGGTTCTAACCTGTTGCTG (site TCTTGCTCTAG) | 0.0485 |
| AGAAGTCCTTGGGTTCTAACCTGTTGCGG (site AGAAGTCCTCA) | 0.0978 |
| AGAAGTCCTTGGGTTCTAACCTGTTGCGG (site AGAAGTCCTCC) | 1.91 |
| AGAAGTCCTTGGGTTCTAACCTGTTGCGG (site AGAAGTCCTCG) | 0.101 |
| AGAAGTCCTTGGGTTCTAACCTGTTGCGG (site AGAAGTCCTCT) | 1.32 |
